Here are results for 1 compound from PMC8861878 (The Journal of pharmacy and pharmacology, 2020).

The target in the data set is T1, UGT1A8 (Homo sapiens, UniProt Q9HAW9).
T1 sequence (Q9HAW9 26-530): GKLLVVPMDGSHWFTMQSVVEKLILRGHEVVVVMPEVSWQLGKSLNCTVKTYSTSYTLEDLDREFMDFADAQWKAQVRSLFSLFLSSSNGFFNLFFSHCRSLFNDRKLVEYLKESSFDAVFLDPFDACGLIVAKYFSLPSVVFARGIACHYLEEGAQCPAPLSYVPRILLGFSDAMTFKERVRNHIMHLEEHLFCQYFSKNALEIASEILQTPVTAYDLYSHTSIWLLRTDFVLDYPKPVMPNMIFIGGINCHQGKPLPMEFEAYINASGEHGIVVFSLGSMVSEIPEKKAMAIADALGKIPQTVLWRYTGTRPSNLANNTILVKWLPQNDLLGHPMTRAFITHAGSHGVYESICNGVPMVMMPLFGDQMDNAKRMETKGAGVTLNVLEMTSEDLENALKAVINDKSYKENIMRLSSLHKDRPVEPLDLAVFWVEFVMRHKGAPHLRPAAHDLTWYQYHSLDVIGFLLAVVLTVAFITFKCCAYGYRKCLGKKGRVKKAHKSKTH
In words: Glucuronidation of isobavachin by recombinant UGT1A8, enzyme kinetics. The format is in vitro ADME. The settings on record: formation of G1, substrate inhibition model.

For `CC(C)=CCc1c(O)ccc2c1O[C@H](c1ccc(O)cc1)CC2=O` [isobavachin], the “CLint (CLmax)” value was determined as 46.30 ± 11.05 μl/min per mg and the Vmax came out at 1607.00 ± 241.00 pmol/min per mg. Where the note is “substrate inhibition constant”, the Ki was determined as 17.04 ± 3.36 µM.
